Laboratory results published in patent US10125160B1, “Method of making cobalt and platinum based surfactants and using for cancer therapy” (Umm Al-Qura University, priority 2015, dated 2018).

Columns and labels:
[1] = Surface tension and critical micelle concentration (Du-Nouy tensiometer); format: physicochemical; parameters: PC20: unit not given here
Description: Surface tension values of the synthesized complex solutions (parent complex, parent complex with Co, parent complex with Pt) were obtained at 30îC using Du-Nouy Tensiometer (Kruss K6 Type 4851) with a platinum ring. Apparent surface tension was measured about five times for the sample within 2 min interval between each reading. The averages of five determinations were plotted against −log C without any correction. The critical micelle concentration values were determined from the plot of surface tension versus concentration.
Table 4 summarizes the surface-active parameters such as critical micelle concentration (CMC), γCMC, and pC20 (the surfactant concentration required to reduce the surface tension of the solvent by 20 mN/m) determined from the curves of FIG. 1. Values of Γmax (the surface excess concentration of surfactant) and Amin (interfacial area occupied by the surfactant molecules) were calculated using the Gibbs adsorption equation:
Where (δγ/δ log C) is the maximum slope in each case; T is absolute temperature; R=[…] and N is Avogadro's number. The standard free energy of micellization (ΔG°mic) is calculated from the equation: ΔG°mic=RT in CMC (Eq 7)
The standard free energy of adsorption (ΔG°ads) is calculated according to the following equation: ΔG°ads=ΔG°mic−ΠCMCAmin (Eq 8)

HEPG2 (liver carcinoma) = test: Potential cytotoxicity by SRB assay, HEPG2; format: cell-based, human
Description: (§1) Potential cytotoxicity of the complex was tested using the method of Skehan et al. (1990). The tumor cell lines: MCF7 (Breast carcinoma), HEPG2 (liver carcinoma), (10^4 cells/well) had been supplied from National Cancer Institute Cairo Egypt, were plated in 96-multiwell plat for 24 h before treatment with the compounds to allow attachment of cell to the wall of the plate.
(§2) Different concentrations of the complexes under test (0, 1, 2.5, Sand 10 μg/ml) were added to the cell-monolayer (parent complex, parent complex with Co, parent complex with Pt). Triplicate wells were prepared for each individual dose. Monolayer cells were incubated with the complex for 48 h at 37 C° and in atmosphere of 5% CO2. After 48 h, Cells were fixed, washed and stained with Sulfurhodamine B stain. Excess stain was washed with acetic acid and attached stain was recovered with Tris EDTA buffer. Color intensity was measured in an ELISA reader. […]
(§3) Cobalt and Platinum benzidinium hydrogen selenite complexes as well as their parent were investigated as potential selective, anticancer drugs. […] The results of the cytotoxic activity on human tumor cell lines were determined according to the dose values of drug exposure for cell lines to reduce survival to 50% (Ic50). The experimental results recorded in Table (5) and plots of surviving fraction versus concentration in μg in FIGS. 2, 3).

MCF7 (Breast carcinoma) = test: Potential cytotoxicity by SRB assay, MCF7; format: cell-based, human
Description: as §1, §2, §3

[2] = calculated using Gibbs adsorption equation
[3] = SRB assay, 48 h, dose reducing survival to 50%
[4] = in vitro on the tumor cell line investigated

Compound: CCCCCCCCCC(=O)Nc1ccc(-c2ccc(N)cc2)cc1.O=[Se](O)O [parent, N-decanoylbenzidinum hydrogen selenite]
- ΠCMC [1]: 33 mN/m
- Amin (interfacial area occupied by surfactant molecules) [1, 2]: 1.80 nm^2
- Γmax × 10^−11 (surface excess concentration) [1, 2]: 9.1 × 10^−11 Mole/cm^2
- ΔGmic (standard free energy of micellization) ([1]; calculated, Eq 7): −27.64 KJ\mol
- ΔGads (standard free energy of adsorption) ([1]; calculated, Eq 8): −64.21 KJ\mol
- CMC × 10^−3 (critical micelle concentration) ([1]; from plot of surface tension versus concentration): 3.76 × 10^−3
- γCMC ([1]; surface tension at CMC): 39 mN/m
- PC20 ([1]; surfactant concentration required to reduce surface tension of solvent by 20 mN/m): 3.50
- HEPG2 (IC50) (HEPG2 (liver carcinoma); [3]): −Ve
- cytotoxic activity in words, HEPG2 (HEPG2 (liver carcinoma); [4]): no effect
- MCF7 (IC50) (MCF7 (Breast carcinoma); [3]): −Ve
- cytotoxic activity in words, MCF7 (MCF7 (Breast carcinoma); [4]): no effect
